Several values for one entry are separate records, joined by “and”; a condition that tells them apart may be missing. Identical values can stand only once. Like-named read-outs stand apart in the source and are kept apart here.
What was measured:
in vitro = settings: male, human, % cell viability, M6 HAE, 0.046 µM
[1] = format: in vivo, ferret (Mustela putorius furo); settings: b.i.d.; for Bodyweight, Mean 2 (treated group) / Bodyweight, Mean Diff. (Vehicle vs. treated): Fig 3e; for Temperature, Mean 2 (treated group) / Temperature, Mean Diff. (Vehicle vs. treated): Fig 3d
[2] = tested on: SARS-CoV-2 VOC γ (BZ/2021); format: in vivo, ferret (Mustela putorius furo)
HCT-8 cells = experiment: Cytotoxicity assay (PrestoBlue), HCT-8; settings: for % cell viability: 72 h
SARS-CoV-2 WA1/2020 = format: in vivo, ferret (Mustela putorius furo); settings: Fig 2f; 20 mg kg-1 b.i.d.; sample size 4

CC(C)C(=O)OCC1OC(C#N)(c2ccc3c(N)ncnn23)C(OC(=O)C(C)C)C1OC(=O)C(C)C (stereo not shown) [GS-621763]
viability at 72 h, 0.046 µM (in vitro): 92% | Bodyweight, Mean 2 (treated group) ([1]; Row 1 (time), 3 mg/kg): 100 | Bodyweight, Mean Diff. (Vehicle vs. treated) ([1]; Row 1 (time), 3 mg/kg): 0 | Bodyweight, Mean 2 (treated group) ([1]; Row 1 (time), 10 mg/kg): 100 | Bodyweight, Mean Diff. (Vehicle vs. treated) ([1]; Row 1 (time), 10 mg/kg): 0 | Bodyweight, Mean 2 (treated group) ([1]; Row 2 (time), 3 mg/kg): 98.83 | Bodyweight, Mean Diff. (Vehicle vs. treated) ([1]; Row 2 (time), 3 mg/kg): 1.898 | Bodyweight, Mean 2 (treated group) ([1]; Row 2 (time), 10 mg/kg): 104.7 | Bodyweight, Mean Diff. (Vehicle vs. treated) ([1]; Row 2 (time), 10 mg/kg): -3.948 | Bodyweight, Mean 2 (treated group) ([1]; Row 3 (time), 3 mg/kg): 102.4 | Bodyweight, Mean Diff. (Vehicle vs. treated) ([1]; Row 3 (time), 3 mg/kg): -1.11 | Bodyweight, Mean 2 (treated group) ([1]; Row 3 (time), 10 mg/kg): 103.7 | Bodyweight, Mean Diff. (Vehicle vs. treated) ([1]; Row 3 (time), 10 mg/kg): -2.374 | Bodyweight, Mean 2 (treated group) ([1]; Row 4 (time), 3 mg/kg): 104.1 | Bodyweight, Mean Diff. (Vehicle vs. treated) ([1]; Row 4 (time), 3 mg/kg): -1.927 | Bodyweight, Mean 2 (treated group) ([1]; Row 4 (time), 10 mg/kg): 106.9 | Bodyweight, Mean Diff. (Vehicle vs. treated) ([1]; Row 4 (time), 10 mg/kg): -4.724 | Bodyweight, Mean 2 (treated group) ([1]; Row 5 (time), 3 mg/kg): 105.2 | Bodyweight, Mean Diff. (Vehicle vs. treated) ([1]; Row 5 (time), 3 mg/kg): -2.7 | Bodyweight, Mean 2 (treated group) ([1]; Row 5 (time), 10 mg/kg): 107.9 | Bodyweight, Mean Diff. (Vehicle vs. treated) ([1]; Row 5 (time), 10 mg/kg): -5.412 | Temperature, Mean 2 (treated group) ([1]; Row 1 (time), 3 mg/kg): 38.95 | Temperature, Mean Diff. (Vehicle vs. treated) ([1]; Row 1 (time), 3 mg/kg): 0.2 | Temperature, Mean 2 (treated group) ([1]; Row 1 (time), 10 mg/kg): 38.53 | Temperature, Mean Diff. (Vehicle vs. treated) ([1]; Row 1 (time), 10 mg/kg): 0.625 | Temperature, Mean 2 (treated group) ([1]; Row 2 (time), 3 mg/kg): 38.75 | Temperature, Mean Diff. (Vehicle vs. treated) ([1]; Row 2 (time), 3 mg/kg): -0.075 | Temperature, Mean 2 (treated group) ([1]; Row 2 (time), 10 mg/kg): 39.03 | Temperature, Mean Diff. (Vehicle vs. treated) ([1]; Row 2 (time), 10 mg/kg): -0.35 | Temperature, Mean 2 (treated group) ([1]; Row 3 (time), 3 mg/kg): 38.78 | Temperature, Mean Diff. (Vehicle vs. treated) ([1]; Row 3 (time), 3 mg/kg): -0.1 | Temperature, Mean 2 (treated group) ([1]; Row 3 (time), 10 mg/kg): 38.85 | Temperature, Mean Diff. (Vehicle vs. treated) ([1]; Row 3 (time), 10 mg/kg): -0.175 | Temperature, Mean 2 (treated group) ([1]; Row 4 (time), 3 mg/kg): 38.93 | Temperature, Mean Diff. (Vehicle vs. treated) ([1]; Row 4 (time), 3 mg/kg): -0.275 | Temperature, Mean 2 (treated group) ([1]; Row 4 (time), 10 mg/kg): 38.73 | Temperature, Mean Diff. (Vehicle vs. treated) ([1]; Row 4 (time), 10 mg/kg): -0.075 | Temperature, Mean 2 (treated group) ([1]; Row 5 (time), 3 mg/kg): 38.73 | Temperature, Mean Diff. (Vehicle vs. treated) ([1]; Row 5 (time), 3 mg/kg): -0.15 | Temperature, Mean 2 (treated group) ([1]; Row 5 (time), 10 mg/kg): 38.2 | Temperature, Mean Diff. (Vehicle vs. treated) ([1]; Row 5 (time), 10 mg/kg): 0.375 | SARS-CoV-2 RNA copies in lungs of contacts (Fig 4G) ([2]; Contact - GS-621763): not detected | Nasal turbinate RNA, Mean Diff. GS-621763 vs. Contact - GS-621763 ([2]; Fig 4e, […], 10 mg/kg b.i.d.): 0.9216 | Nasal turbinate RNA, Mean Diff. GS-621763 vs. Contact - Vehicle ([2]; Fig 4e, […], 10 mg/kg b.i.d.): -3.233 | Nasal turbinate RNA, group mean of Contact - GS-621763 (Transform of Brazil - Nasal Turbinate RNA) ([2]; Fig 4e, […], contacts of GS-621763-treated source animals): 4.287 | Turbinate titers, Mean Diff. GS-621763 vs. Contact - GS-621763 ([2]; Fig 4d, […], 10 mg/kg b.i.d.): 0 | Turbinate titers, Mean Diff. GS-621763 vs. Contact - Vehicle ([2]; Fig 4d, […], 10 mg/kg b.i.d.): -3.824 | Turbinate titers, group mean of Contact - GS-621763 (Transform of Brazil - Turbinate Titers) ([2]; Fig 4d, […], contacts of GS-621763-treated source animals): 0.9542 | Infectious virus titer in nasal lavage of contacts (Fig 4B) ([2]; in vivo): 5 pfu | Nasal turbinate RNA, Mean Diff. Contact - Vehicle vs. Contact - GS-621763 ([2]; in vivo): 4.155 | Nasal turbinate RNA, Mean Diff. Vehicle vs. Contact - GS-621763 ([2]; in vivo): 4.881 | Turbinate titers, Mean Diff. Contact - Vehicle vs. Contact - GS-621763 ([2]; in vivo): 3.824 | Turbinate titers, Mean Diff. Vehicle vs. Contact - GS-621763 ([2]; in vivo): 3.511 | viral RNA in nasal turbinates of contact animals of treated source ferrets ([2]; in vivo): < 10^5 copies/g nasal turbinate | virus transmission to untreated direct-contact animals ([2]; in vivo): completely blocked virus transmission | % cell viability (HCT-8 cells; HCT-8, 0.046 µM, 0.046 µM): 75% and 72% | % cell viability (HCT-8 cells; HCT-8, 1.235 µM, 1.235 µM): 103% | % cell viability (HCT-8 cells; HCT-8, 33.333 µM, 33.333 µM): 96% | % cell viability (HCT-8 cells; HCT-8, 100 µM, 100 µM): 1% | CC50 (HCT-8 cells; HCT-8, 72 h): 74.6 µM | Transform of Nasal turbinate titers, Mean (treated) (SARS-CoV-2 WA1/2020): 2.037

Reference: PMC8571282 (Nature Communications, 2021)
